From patent US20240317744A1, “Bicyclic Ureas As Kinase Inhibitors” (Incyte Corporation, priority 2023, published 2024)

Legend:
[1] = molecular target: T1, pseudo-kinase domain (JH2, amino-acids 536-812) of human V617F mutant JAK2 (Homo sapiens, UniProt O60674, F794H/V617F/W659A/W777A); experiment: JAK2 LanthaScreen JH2-V617F Binding Assay; conditions: JAK2 JH2-V617F 0.26 nM, 50 nM tracer, 1 hour at 25° C.; read-out: JH2 BIND V617F
T1 construct: pseudo-kinase domain (JH2, amino-acids 536-812 with 3 surface mutations W659A, W777A, F794H); His (C); purchased BPS Bioscience 79498; host or cells: baculovirus expression system
T1 sequence (O60674 536-812 V617F/W659A/W777A/F794H): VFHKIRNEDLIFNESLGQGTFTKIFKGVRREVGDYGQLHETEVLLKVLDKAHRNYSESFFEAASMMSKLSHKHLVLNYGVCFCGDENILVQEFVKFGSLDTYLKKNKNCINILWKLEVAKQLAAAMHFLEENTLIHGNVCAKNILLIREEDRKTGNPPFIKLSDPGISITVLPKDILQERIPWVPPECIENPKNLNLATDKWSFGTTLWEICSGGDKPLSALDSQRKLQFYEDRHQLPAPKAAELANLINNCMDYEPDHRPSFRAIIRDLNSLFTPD
Protocol: Example C. JAK2 LanthaScreen JH2-V617F Binding Assay
JAK2 JH2-V617F binding assay utilizes pseudo-kinase domain (JH2, amino-acids 536-812 with 3 surface mutations W659A, W777A, F794H) of human V617F mutant JAK2 expressed as C-terminal His-Avi-tagged, biotinylated protein in a baculovirus expression system (BPS Bioscience, Catalog #79498). The assay was conducted in black 384-well polystyrene plates in a final reaction volume of 20 μL. JAK2 JH2-V617F (0.26 nM) was incubated with compounds (100 nL serially diluted in DMSO) in the presence of 50 nM Fluorescent JAK2-JH2 Tracer (MedChem Express Catalog #HY-102055) and 0.25 nM Streptavidin-Tb cryptate (Cisbio Part #610SATLB) in assay buffer (50 mM Tris, pH=7.5, 10 mM MgCl2, 0.01% Brij-35, 0.1% BSA, 1 mM EGTA, 5% Glycerol and 5 mM DTT). Non-specific binding was accessed in the presence of 2 mM ATP. After incubation for 1 hour at 25° C., LanthaScreen signals were read on a PHERAstar FS plate reader (BMG LABTECH). Data was analyzed with IDBS XLfit and GraphPad Prism 5.0 software using a four parameter dose response curve to determine IC50 for each compound.

[2] = molecular target: catalytic domain (JH1, amino acids 808-1132) of human JAK2 (Homo sapiens, UniProt O60674); experiment: JAK2 HTRF Enzyme Activity Assay; format: biochemical; conditions: ATP 30 µM, 60 minutes at 25° C.; read-out: V617F ENZ 30 UM
Sequence of catalytic domain (JH1, amino acids 808-1132) of human JAK2 (O60674 808-1132 limits assumed): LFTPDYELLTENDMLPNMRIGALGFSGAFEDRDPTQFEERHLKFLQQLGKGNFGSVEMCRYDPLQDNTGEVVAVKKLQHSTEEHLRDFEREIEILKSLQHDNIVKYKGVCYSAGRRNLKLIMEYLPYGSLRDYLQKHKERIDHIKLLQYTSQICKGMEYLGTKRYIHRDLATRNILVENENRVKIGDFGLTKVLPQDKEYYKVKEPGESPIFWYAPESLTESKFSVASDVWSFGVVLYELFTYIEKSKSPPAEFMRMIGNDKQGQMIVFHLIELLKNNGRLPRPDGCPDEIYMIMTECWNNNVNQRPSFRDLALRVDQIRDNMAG

Row | Structure (SMILES) | IC50 [1] [nM] | IC50 [2] [nM]
1 | [2H]C([2H])([2H])n1c(=O)n([C@@H]2CC[C@](C)(NC(C)=O)C2)c2cc(Nc3cc(C(C)(C)O)cc(-c4cnc(OC(C)C)s4)n3)ncc21 [Example 151, N-((1S,3R)-3-(6-((4-(2-hydroxypropan-2-yl)-6-(2-isopropoxythiazol-5-yl)pyridin-2-yl)amino)-3-(methyl-d3)-2-oxo-2,3-dihydro-1H-imidazo[4,5-c]pyridin-1-yl)-1-methylcyclopentyl)acetamide] | ≤ 10 | > 1000
2 | [2H]C([2H])([2H])n1c(=O)n([C@@H]2CC[C@](C)(NC(C)=O)C2)c2cc(Nc3cc(C(C)(C)O)cc(-c4cnc(OC)s4)n3)ncc21 [Example 152, N-((1S,3R)-3-(6-((4-(2-Hydroxypropan-2-yl)-6-(2-methoxythiazol-5-yl)pyridin-2-yl)amino)-3-(methyl-d3)-2-oxo-2,3-dihydro-1H-imidazo[4,5-c]pyridin-1-yl)-1-methylcyclopentyl)acetamide] | ≤ 10 | > 1000
3 | [2H]C([2H])([2H])n1c(=O)n([C@@H]2CC[C@](C)(NC(C)=O)C2)c2cc(Nc3cc(C(C)(C)O)cc(-c4cnc(OCC)s4)n3)ncc21 [Example 153, N-((1S,3R)-3-(6-((6-(2-Ethoxythiazol-5-yl)-4-(2-hydroxypropan-2-yl)pyridin-2-yl)amino)-3-(methyl-d3)-2-oxo-2,3-dihydro-1H-imidazo[4,5-c]pyridin-1-yl)-1-methylcyclopentyl)acetamide] | ≤ 10 | > 1000
4 | [2H]C([2H])([2H])n1c(=O)n([C@H]2C[C@H](NC(=O)OC)[C@@H](O)C2)c2cc(Nc3cc(C(C)(C)O)cc(-c4ncc(C(F)(F)F)s4)n3)ncc21 [Example 155, Methyl ((1S,2S,4S)-2-hydroxy-4-(6-((4-(2-hydroxypropan-2-yl)-6-(5-(trifluoromethyl)thiazol-2-yl)pyridin-2-yl)amino)-3-(methyl-d3)-2-oxo-2,3-dihydro-1H-imidazo[4,5-c]pyridin-1-yl)cyclopentyl)carbamate] | ≤ 10 | > 1000
5 | [2H]C([2H])([2H])n1c(=O)n([C@@H]2CC[C@@]([2H])(NC(=O)OC)C2)c2cc(Nc3cc(C(C)(C)O)cc(-c4ncc(C(F)(F)F)s4)n3)ncc21 [Example 158, Methyl ((1R,3R)-3-(6-((4-(2-hydroxypropan-2-yl)-6-(5-(trifluoromethyl)thiazol-2-yl)pyridin-2-yl)amino)-3-(methyl-d3)-2-oxo-2,3-dihydro-1H-imidazo[4,5-c]pyridin-1-yl)cyclopentyl-1-d)carbamate] | ≤ 10 | > 1000
6 | [2H]C([2H])([2H])n1c(=O)n([C@@H]2CC[C@]([2H])(NC(=O)OC)C2)c2cc(Nc3cc(C(C)(C)O)cc(-c4ncc(C(F)(F)F)s4)n3)ncc21 [Example 159, Methyl ((1S,3R)-3-(6-((4-(2-hydroxypropan-2-yl)-6-(5-(trifluoromethyl)thiazol-2-yl)pyridin-2-yl)amino)-3-(methyl-d3)-2-oxo-2,3-dihydro-1H-imidazo[4,5-c]pyridin-1-yl)cyclopentyl-1-d)carbamate] | ≤ 10 | > 1000
7 | [2H]C([2H])([2H])n1c(=O)n([C@@H]2CC[C@]([2H])(NC(=O)OC)C2)c2cc(Nc3cc(-c4cnccc4C(F)(F)F)c4nc(C)c(-c5cnn(C(F)F)c5)n4n3)ncc21 [Example 160, Methyl ((1S,3R)-3-(6-((3-(1-(difluoromethyl)-1H-pyrazol-4-yl)-2-methyl-8-(4-(trifluoromethyl)pyridin-3-yl)imidazo[1,2-b]pyridazin-6-yl)amino)-3-(methyl-d3)-2-oxo-2,3-dihydro-1H-imidazo[4,5-c]pyridin-1-yl)cyclopentyl-1-d)carbamate] | ≤ 10 | > 1000
